Measured values as given in patent US20180353483A1, “PHARMACEUTICAL COMPOSITIONS AND METHODS FOR INDOLEAMINE, 2, 3-DIOXYGENASE INHIBITION AND INDICATIONS THEREFOR” (Incyte Corporation, priority 2015, published 2018).
Where two headings read alike, the source gives them in different places.

Assay: Pharmacokinetics of Compound 1 in combination with MK-3475 in subjects with various cancers
Format: in vivo, human
Settings: human, plasma, oral; for tmax: read-out: tmax; for concentration at 8 day (cycle 1): read-out: Cmin
Protocol: The subjects were not limited to a specific cancers and study include subjects with various cancers. […] One treatment cycle consisted of 21 days. […] Additional subjects were enrolled in a cohort to achieve the minimum of 3 evaluable subjects if dropouts or dose interruptions or reductions occur that result in a subject being non-evaluable for DLTs. […] An additional safety cohort was opened at 100 mg BID in parallel to 300 mg BID being tested. This may also be limited to subjects with melanoma, NSCLC, or specific cancer types from among those included in Phase 1. The RP2D was selected from the evaluated safety expansions.
If a dose was missed by more than 4 hours, that dose was skipped and was resumed at the scheduled time.
Pharmacokinetic samples were obtained at the visits of Cycle 1 Day 1, Cycle 1 Day 8 and Cycle 2 Day 1. […] The exact date and time of the PK blood draws were recorded in the eCRF along with the date and time of the last dose of study drug and details of the last meal preceding the blood draw.
The planned PK time points were used for preliminary PK analyses.

[1] = 100 mg BID, Diagnosis DLBCL, steady state C1D8, individual values of 2 subjects
[2] = 100 mg BID, Diagnosis GU, steady state C1D8, mean ± SD
[3] = 100 mg BID, Diagnosis NSCLC PD-L1 High, steady state C1D8, mean ± SD

For `NS(=O)(=O)NCCNc1nonc1C(=NO)Nc1ccc(F)c(Br)c1` [Compound 1, 4-({2-[(aminosulfonyl)amino]ethyl}amino)-N-(3-bromo-4-fluorophenyl)-N′-hydroxy-1,2,5-oxadiazole-3-carboximidamide], the AUC(0-t) (100 mg BID, All diagnoses, steady state C1D8, geometric mean, read-out: AUC0-12 h (converted)) was 4.26 µM·h, the Cmax (100 mg BID, All diagnoses, steady state C1D8, mean ± SD) was 1100 ± 467 nM and the AUC(0-t) (100 mg BID, All diagnoses, steady state C1D8, mean ± SD, read-out: AUC0-12 h (converted)) was 4.62 ± 2.14 µM·h. For the same compound, the Cmax [1] was 883 nM, the AUC(0-t) (100 mg BID, Diagnosis DLBCL, steady state C1D8, individual values of 2 subjects, read-out: AUC0-12 h (converted)) was 5.32 µM·h and the tmax [1] was 4 h. For the same compound, the Cmax (100 mg BID, Diagnosis GU, steady state C1D8, geometric mean) was 1030 nM, the AUC(0-t) (100 mg BID, Diagnosis GU, steady state C1D8, geometric mean, read-out: AUC0-12 h (converted)) was 4.41 µM·h and the Cmax [2] was 1100 ± 400 nM. It also gave an AUC(0-t) (100 mg BID, Diagnosis GU, steady state C1D8, mean ± SD, read-out: AUC0-12 h (converted)) of 4.98 ± 3.01 µM·h, a concentration at 8 day (cycle 1) [2] of 154 ± 203 nM and a Cmax (100 mg BID, Diagnosis MEL, steady state C1D8, geometric mean) of 945 nM. The AUC(0-t) (100 mg BID, Diagnosis MEL, steady state C1D8, geometric mean, read-out: AUC0-12 h (converted)) was 3.57 µM·h, the Cmax (100 mg BID, Diagnosis MEL, steady state C1D8, mean ± SD) was 1000 ± 347 nM and the AUC(0-t) (100 mg BID, Diagnosis MEL, steady state C1D8, mean ± SD, read-out: AUC0-12 h (converted)) was 3.68 ± 0.852 µM·h. It also gave an AUC(0-t) (100 mg BID, Diagnosis NSCLC PD-L1 High, steady state C1D8, geometric mean, read-out: AUC0-12 h (converted)) of 4.15 µM·h, a Cmax [3] of 939 ± 549 nM and an AUC(0-t) (100 mg BID, Diagnosis NSCLC PD-L1 High, steady state C1D8, mean ± SD, read-out: AUC0-12 h (converted)) of 4.43 ± 1.81 µM·h. It also gave a concentration at 8 day (cycle 1) [3] of 159 ± 77.7 nM, a tmax (100 mg BID, Diagnosis NSCLC PD-L1 High, steady state C1D8, median) of 3 h and a Cmax (100 mg BID, Diagnosis NSCLC PD-L1 Low/NE, steady state C1D8, geometric mean) of 867 nM. It also gave an AUC(0-t) (100 mg BID, Diagnosis NSCLC PD-L1 Low/NE, steady state C1D8, geometric mean, read-out: AUC0-12 h (converted)) of 4.3 µM·h, a Cmax (100 mg BID, Diagnosis NSCLC PD-L1 Low/NE, steady state C1D8, mean ± SD) of 879 ± 156 nM and an AUC(0-t) (100 mg BID, Diagnosis NSCLC PD-L1 Low/NE, steady state C1D8, mean ± SD, read-out: AUC0-12 h (converted)) of 4.35 ± 0.828 µM·h. The Cmax (100 mg BID, Diagnosis OC, steady state C1D8, geometric mean) was 1110 nM, the AUC(0-t) (100 mg BID, Diagnosis OC, steady state C1D8, geometric mean, read-out: AUC0-12 h (converted)) was 4.34 µM·h and the Cmax (100 mg BID, Diagnosis OC, steady state C1D8, mean ± SD) was 1200 ± 487 nM. It also gave an AUC(0-t) (100 mg BID, Diagnosis OC, steady state C1D8, mean ± SD, read-out: AUC0-12 h (converted)) of 4.66 ± 2.11 µM·h, a Cmax (100 mg BID, Diagnosis SCCHN, steady state C1D8, geometric mean) of 821 nM and an AUC(0-t) (100 mg BID, Diagnosis SCCHN, steady state C1D8, geometric mean, read-out: AUC0-12 h (converted)) of 3.81 µM·h. For the same compound, the Cmax (100 mg BID, Diagnosis SCCHN, steady state C1D8, mean ± SD) was 987 ± 612 nM, the AUC(0-t) (100 mg BID, Diagnosis SCCHN, steady state C1D8, mean ± SD, read-out: AUC0-12 h (converted)) was 4.29 ± 2.3 µM·h and the Cmax (100 mg BID, Diagnosis TNBC, steady state C1D8, geometric mean) was 1150 nM. The AUC(0-t) (100 mg BID, Diagnosis TNBC, steady state C1D8, geometric mean, read-out: AUC0-12 h (converted)) was 4.69 µM·h, the Cmax (100 mg BID, Diagnosis TNBC, steady state C1D8, mean ± SD) was 1210 ± 433 nM and the AUC(0-t) (100 mg BID, Diagnosis TNBC, steady state C1D8, mean ± SD, read-out: AUC0-12 h (converted)) was 5.01 ± 2.09 µM·h. It also gave a Cmax (100 mg BID, Dose Reduction By C4D1 subjects (Table 13), steady state C1D8, geometric mean) of 953 nM, an AUC(0-t) (100 mg BID, Dose Reduction By C4D1 subjects (Table 13), steady state C1D8, geometric mean, read-out: AUC0-12 h (converted)) of 4.42 µM·h and a Cmax (100 mg BID, Dose Reduction By C4D1 subjects (Table 13), steady state C1D8, mean ± SD) of 1040 ± 551 nM. The AUC(0-t) (100 mg BID, Dose Reduction By C4D1 subjects (Table 13), steady state C1D8, mean ± SD, read-out: AUC0-12 h (converted)) was 5.1 ± 3.59 µM·h, the Cmax (100 mg, All diagnoses, first dose, geometric mean) was 830 nM and the AUC(0-t) (100 mg, All diagnoses, first dose, geometric mean, read-out: AUC0-t) was 2.63 µM·h. It also gave a Cmax (100 mg, All diagnoses, first dose, mean ± SD) of 937 ± 469 nM, an AUC(0-t) (100 mg, All diagnoses, first dose, mean ± SD, read-out: AUC0-t) of 2.87 ± 1.19 µM·h and an AUC(0-t) (100 mg, Cohort 3, 100 mg BID, steady state C1D8, geometric mean, read-out: AUC0-12 h (converted)) of 3.67 µM·h. The Cmax (100 mg, Cohort 3, 100 mg BID, steady state C1D8, mean ± SD) was 956 ± 497 nM, the AUC(0-t) (100 mg, Cohort 3, 100 mg BID, steady state C1D8, mean ± SD, read-out: AUC0-12 h (converted)) was 3.91 ± 1.35 µM·h and the Cmax (100 mg, Cohort 3, 100 mg, first dose, geometric mean) was 521 nM. It also gave an AUC(0-t) (100 mg, Cohort 3, 100 mg, first dose, geometric mean, read-out: AUC0-t) of 1.89 µM·h, a Cmax (100 mg, Cohort 3, 100 mg, first dose, mean ± SD) of 632 ± 508 nM and an AUC(0-t) (100 mg, Cohort 3, 100 mg, first dose, mean ± SD, read-out: AUC0-t) of 2.09 ± 1.15 µM·h. The tmax (100 mg, Cohort 3, 100 mg, first dose, median) was 4 h, the AUC(0-t) (100 mg, Cohort 5, 100 mg BID, steady state C1D8, geometric mean, read-out: AUC0-12 h (converted)) was 3.53 µM·h and the Cmax (100 mg, Cohort 5, 100 mg BID, steady state C1D8, mean ± SD) was 905 ± 421 nM. The AUC(0-t) (100 mg, Cohort 5, 100 mg BID, steady state C1D8, mean ± SD, read-out: AUC0-12 h (converted)) was 3.79 ± 1.43 µM·h, the Cmax (100 mg, Cohort 5, 100 mg, first dose, geometric mean) was 787 nM and the AUC(0-t) (100 mg, Cohort 5, 100 mg, first dose, geometric mean, read-out: AUC0-t) was 2.46 µM·h. For the same compound, the Cmax (100 mg, Cohort 5, 100 mg, first dose, mean ± SD) was 852 ± 340 nM, the AUC(0-t) (100 mg, Cohort 5, 100 mg, first dose, mean ± SD, read-out: AUC0-t) was 2.58 ± 0.778 µM·h and the tmax (100 mg, Cohort 5, 100 mg, first dose, median) was 1.5 h. It also gave a Cmax (100 mg, Diagnosis DLBCL, first dose, geometric mean) of 664 nM.
